Test results as given in ChEMBL document CHEMBL1143901, “Lead identification of 2-iminobenzimidazole antagonists of the chemokine receptor CXCR3” (Bioorg Med Chem Lett, 2008).

Columns and labels:
[1] = target: T1, C-X-C chemokine receptor type 3 (Homo sapiens, UniProt P49682); assay: Displacement of [125I]-CXCL10 from human CXCR3 expressed in CHO cell membrane; assay type: cell membranes
T1 sequence (P49682 whole entry): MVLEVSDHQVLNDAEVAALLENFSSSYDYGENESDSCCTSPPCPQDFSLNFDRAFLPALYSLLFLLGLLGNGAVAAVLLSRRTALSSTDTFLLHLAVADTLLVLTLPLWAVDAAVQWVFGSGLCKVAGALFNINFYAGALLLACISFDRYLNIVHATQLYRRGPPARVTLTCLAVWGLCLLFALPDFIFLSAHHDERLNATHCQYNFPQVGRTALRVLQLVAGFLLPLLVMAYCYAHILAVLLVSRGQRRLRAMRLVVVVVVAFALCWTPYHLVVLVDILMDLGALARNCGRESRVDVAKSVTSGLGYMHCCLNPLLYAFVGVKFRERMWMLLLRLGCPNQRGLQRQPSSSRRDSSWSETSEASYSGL

[2] = target: T1, C-X-C chemokine receptor type 3; assay: Antagonist activity at human CXCR3 expressed in CHO cell […] assessed as inhibition of calcium flux by FLIPR; assay type: functional, cell-based
[3] = target: T2, C-X-C chemokine receptor type 3 (Mus musculus, UniProt O88410); assay: Displacement of [125I]-CXCL10 from mouse CXCR3 expressed in CHO cell membrane; assay type: cell membranes
T2 sequence (O88410 whole entry): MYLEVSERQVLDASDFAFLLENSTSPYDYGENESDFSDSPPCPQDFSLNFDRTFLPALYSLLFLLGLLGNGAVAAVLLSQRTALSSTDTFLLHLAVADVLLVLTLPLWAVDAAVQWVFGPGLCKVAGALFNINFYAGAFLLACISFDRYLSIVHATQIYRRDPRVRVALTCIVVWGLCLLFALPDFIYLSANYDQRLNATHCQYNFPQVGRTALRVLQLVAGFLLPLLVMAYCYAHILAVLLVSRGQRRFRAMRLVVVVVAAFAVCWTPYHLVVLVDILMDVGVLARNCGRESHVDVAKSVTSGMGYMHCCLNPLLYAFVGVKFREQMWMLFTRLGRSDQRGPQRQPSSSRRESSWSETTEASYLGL

[4] = Metabolic stability in mouse liver microsomes assessed as half life; assay type: ADME, Microsome

| SMILES | IC50 [1] [nM] | IC50 [2] [nM] | IC50 [3] [nM] | half-life [4] [min] |
| --- | --- | --- | --- | --- |
| CCOC(=O)CCn1c(=N)n(CC(=O)c2ccc(Cl)cc2)c2ccccc21 | 1200 | 2500 |  |  |
| CN(Cc1ccccc1)C(=O)CCn1c(=N)n(CC(=O)c2ccc(Cl)cc2)c2ccccc21 | 400 | 200 |  |  |
| CN(CCCn1c(=N)n(CC(=O)c2ccc(Cl)cc2)c2cccc(Cl)c21)C(=O)C(C)(C)C | 600 | 400 |  |  |
| CN(CCCCn1c(=N)n(CC(=O)c2ccc(Cl)cc2)c2cccc(Cl)c21)C(=O)Cc1ccccc1 | 400 | 400 |  |  |
| Cn1c(=N)n(CC(=O)c2ccc(Cl)cc2)c2ccccc21 | 700 |  |  |  |
| N=c1n(CC(=O)c2ccc(Cl)cc2)c2cccc(Cl)c2n1CCCN(C(=O)c1cccc2cccnc12)C1CC1 | 20 | 10 | 1100 |  |
| CN(CCn1c(=N)n(CC(=O)c2ccc(Cl)cc2)c2cccc(Cl)c21)C(=O)Cc1ccccc1 | 400 | 300 | 1500 |  |
| CN(CCn1c(=N)n(CC(=O)c2ccc(Cl)cc2)c2ccccc21)C(=O)Cc1ccccc1 | 400 | 800 |  |  |
| N=c1n(CC(=O)c2ccc(Cl)cc2)c2cccc(Cl)c2n1CC[C@@H]1CCCN1C(=O)c1cccc2cccnc12 | 8 | 20 | 40 | 7.5 |
| N=c1n(CC(=O)c2ccc(Cl)cc2)c2cccc(Cl)c2n1CC1CCCN(C(=O)c2cccc3cccnc23)C1 (centres undefined) | 15 | 20 | 80 |  |
| CCn1c(=N)n(CC(=O)c2ccc(Cl)cc2)c2ccccc21 | 700 | 3500 |  |  |
| N=c1n(CC(=O)c2ccc(Cl)cc2)c2cccc(Cl)c2n1C[C@@H]1CCCN(C(=O)c2cccc3cccnc23)C1 | 15 | 20 | 60 |  |
| CC(=O)N(C)CCn1c(=N)n(CC(=O)c2ccc(Cl)cc2)c2ccccc21 | 1300 | 3400 |  |  |
| CN(CCn1c(=N)n(CC(=O)c2ccc(Cl)cc2)c2ccccc21)C(=O)C1CCCCC1 | 500 | 900 |  |  |
| CN(CCCn1c(=N)n(CC(=O)c2ccc(Cl)cc2)c2cccc(Cl)c21)C(=O)c1ccccn1 | 30 | 20 | 200 |  |
| CN(CCCn1c(=N)n(CC(=O)c2ccc(Cl)cc2)c2cccc(Cl)c21)C(=O)c1ccc2ccccc2c1 | 15 | 40 | 500 | 9.5 |
| CCCn1c(=N)n(CC(=O)c2ccc(Cl)cc2)c2ccccc21 | 1100 |  |  |  |
| CN(CCCn1c(=N)n(CC(=O)c2ccc(Cl)cc2)c2cccc(Cl)c21)C(=O)Cc1ccccc1 | 300 | 70 | 1400 |  |
| CN(Cc1ccccc1)C(=O)Cn1c(=N)n(CC(=O)c2ccc(Cl)cc2)c2ccccc21 | 2200 |  |  |  |
| CCc1cccc2c1n(CCCN(C)C(=O)Cc1ccccc1)c(=N)n2CC(=O)c1ccc(Cl)cc1 | 200 | 100 | 1800 |  |
| CN(CCn1c(=N)n(CC(=O)c2ccc(Cl)cc2)c2ccccc21)C(=O)c1ccccc1 | 300 | 2300 |  |  |
| N=c1n(CC(=O)c2ccc(Cl)cc2)c2cccc(Cl)c2n1C[C@H]1CCCN(C(=O)c2cccc3cccnc23)C1 | 16 | 20 | 70 |  |
| CN(CCCn1c(=N)n(CC(=O)c2ccc(Cl)cc2)c2cccc(Cl)c21)C(=O)c1cccc2cccnc12 | 20 | 20 | 50 | 15 |
| CN(CCCn1c(=N)n(CC(=O)c2ccc(Cl)cc2)c2cccc(Cl)c21)C(=O)c1ccccc1 | 300 | 20 | 800 |  |
| COc1ccccc1C(=O)N(C)CCCn1c(=N)n(CC(=O)c2ccc(Cl)cc2)c2cccc(Cl)c21 | 50 | 20 | 150 | 5.4 |
